Here are results for 2 molecules from publication PMC11558128 (Advanced Science, 2024).

Common to all, as to experiment: cell-based
The target of one test is T1, hNav1.7 (Homo sapiens, UniProt Q15858).
T1 construct: expressed in transfected cells; host or cells: HEK293T
As to conditions: whole-cell patch clamp, mean ± S.E.M., SEM. In general terms: In patch-clamp work, channel activity is measured electrically.

Another test concerns the target T2, rKv4.2 N282A (Rattus norvegicus, UniProt Q63881, N282A).
T2 construct: expressed in transfected cells; host or cells: HEK293T
T2 sequence (Q63881 1-630 N282A): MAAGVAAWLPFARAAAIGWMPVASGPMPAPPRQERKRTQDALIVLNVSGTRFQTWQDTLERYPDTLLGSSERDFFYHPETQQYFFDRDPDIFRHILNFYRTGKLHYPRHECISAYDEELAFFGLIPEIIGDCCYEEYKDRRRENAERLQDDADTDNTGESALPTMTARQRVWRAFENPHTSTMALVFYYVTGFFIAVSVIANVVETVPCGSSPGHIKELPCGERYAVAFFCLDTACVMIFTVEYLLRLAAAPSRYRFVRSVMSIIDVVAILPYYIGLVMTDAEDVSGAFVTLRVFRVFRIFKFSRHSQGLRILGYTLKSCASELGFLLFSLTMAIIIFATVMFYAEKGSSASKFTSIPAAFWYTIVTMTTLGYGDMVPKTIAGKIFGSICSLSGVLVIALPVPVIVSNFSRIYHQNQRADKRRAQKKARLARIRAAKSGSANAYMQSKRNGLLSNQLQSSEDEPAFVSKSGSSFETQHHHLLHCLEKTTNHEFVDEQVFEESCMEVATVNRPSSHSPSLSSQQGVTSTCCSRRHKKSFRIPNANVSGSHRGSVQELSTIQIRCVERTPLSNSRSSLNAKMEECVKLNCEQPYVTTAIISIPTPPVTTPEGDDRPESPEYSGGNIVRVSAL
Particulars: mean ± SEM.

A further test has as its target T3, rKv4.2 (Rattus norvegicus, UniProt Q63881).
T3 construct: expressed in transfected cells; host or cells: HEK293T
T3 sequence (Q63881 1-630): T2 sequence (Q63881 1-630 N282A) with A282N
Particulars: whole-cell patch clamp, HEK293T, n = 3-8, SEM.

For another test, the target named is T4, rKv4.3 (Rattus norvegicus, UniProt Q62897).
T4 construct: expressed in transfected cells; host or cells: HEK293T
T4 sequence (Q62897 1-655): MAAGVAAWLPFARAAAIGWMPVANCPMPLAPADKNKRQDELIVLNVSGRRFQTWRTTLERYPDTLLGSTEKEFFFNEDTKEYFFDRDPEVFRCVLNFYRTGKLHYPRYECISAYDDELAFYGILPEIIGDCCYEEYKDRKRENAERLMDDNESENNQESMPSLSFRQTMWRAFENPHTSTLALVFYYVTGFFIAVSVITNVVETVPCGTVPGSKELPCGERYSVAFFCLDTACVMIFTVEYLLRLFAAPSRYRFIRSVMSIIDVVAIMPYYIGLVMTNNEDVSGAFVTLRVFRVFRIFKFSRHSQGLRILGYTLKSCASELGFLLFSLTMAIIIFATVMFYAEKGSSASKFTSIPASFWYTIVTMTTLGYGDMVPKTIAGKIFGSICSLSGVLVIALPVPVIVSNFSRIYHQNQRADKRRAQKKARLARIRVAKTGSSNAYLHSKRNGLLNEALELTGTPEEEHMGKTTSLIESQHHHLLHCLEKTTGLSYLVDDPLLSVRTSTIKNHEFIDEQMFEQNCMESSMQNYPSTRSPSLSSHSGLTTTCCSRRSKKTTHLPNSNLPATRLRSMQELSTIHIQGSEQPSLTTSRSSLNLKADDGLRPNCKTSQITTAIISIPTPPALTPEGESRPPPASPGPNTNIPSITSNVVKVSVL
As to conditions: whole-cell patch clamp, HEK293T; held at -80 mV, step to 0 mV; mean ± S.E.M., n = 3-8; SEM.

The target of the next test is T5, rKv4.2 V278A (Rattus norvegicus, UniProt Q63881, V278A).
T5 construct: expressed in transfected cells; host or cells: HEK293T
T5 sequence (Q63881 1-630 V278A): T2 sequence (Q63881 1-630 N282A) with V278A, A282N
Particulars: mean ± SEM.

The mark [1] stands for this setting: HEK293T, hNav1.7 with β1 and β2, held at -90 mV, step to 0 mV, n = 3-7, read-out: IC50 for hNav1.7.

Residue numbers refer to the chain shown, from its start. Where two headings read alike, the source gives them in different places. Positions of bridges follow the written chain, without caps; N, C: chain ends. Residues, ends and D or L forms follow the SMILES beside them.

T1 sequence (O60939 30-215): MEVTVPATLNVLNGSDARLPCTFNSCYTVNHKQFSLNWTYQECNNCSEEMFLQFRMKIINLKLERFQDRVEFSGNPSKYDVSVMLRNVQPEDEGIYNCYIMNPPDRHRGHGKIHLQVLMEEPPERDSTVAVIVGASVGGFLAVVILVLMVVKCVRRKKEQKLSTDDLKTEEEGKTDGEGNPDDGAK
T1 sequence (Q15858 other isoform, or with tags, fused parts or gaps): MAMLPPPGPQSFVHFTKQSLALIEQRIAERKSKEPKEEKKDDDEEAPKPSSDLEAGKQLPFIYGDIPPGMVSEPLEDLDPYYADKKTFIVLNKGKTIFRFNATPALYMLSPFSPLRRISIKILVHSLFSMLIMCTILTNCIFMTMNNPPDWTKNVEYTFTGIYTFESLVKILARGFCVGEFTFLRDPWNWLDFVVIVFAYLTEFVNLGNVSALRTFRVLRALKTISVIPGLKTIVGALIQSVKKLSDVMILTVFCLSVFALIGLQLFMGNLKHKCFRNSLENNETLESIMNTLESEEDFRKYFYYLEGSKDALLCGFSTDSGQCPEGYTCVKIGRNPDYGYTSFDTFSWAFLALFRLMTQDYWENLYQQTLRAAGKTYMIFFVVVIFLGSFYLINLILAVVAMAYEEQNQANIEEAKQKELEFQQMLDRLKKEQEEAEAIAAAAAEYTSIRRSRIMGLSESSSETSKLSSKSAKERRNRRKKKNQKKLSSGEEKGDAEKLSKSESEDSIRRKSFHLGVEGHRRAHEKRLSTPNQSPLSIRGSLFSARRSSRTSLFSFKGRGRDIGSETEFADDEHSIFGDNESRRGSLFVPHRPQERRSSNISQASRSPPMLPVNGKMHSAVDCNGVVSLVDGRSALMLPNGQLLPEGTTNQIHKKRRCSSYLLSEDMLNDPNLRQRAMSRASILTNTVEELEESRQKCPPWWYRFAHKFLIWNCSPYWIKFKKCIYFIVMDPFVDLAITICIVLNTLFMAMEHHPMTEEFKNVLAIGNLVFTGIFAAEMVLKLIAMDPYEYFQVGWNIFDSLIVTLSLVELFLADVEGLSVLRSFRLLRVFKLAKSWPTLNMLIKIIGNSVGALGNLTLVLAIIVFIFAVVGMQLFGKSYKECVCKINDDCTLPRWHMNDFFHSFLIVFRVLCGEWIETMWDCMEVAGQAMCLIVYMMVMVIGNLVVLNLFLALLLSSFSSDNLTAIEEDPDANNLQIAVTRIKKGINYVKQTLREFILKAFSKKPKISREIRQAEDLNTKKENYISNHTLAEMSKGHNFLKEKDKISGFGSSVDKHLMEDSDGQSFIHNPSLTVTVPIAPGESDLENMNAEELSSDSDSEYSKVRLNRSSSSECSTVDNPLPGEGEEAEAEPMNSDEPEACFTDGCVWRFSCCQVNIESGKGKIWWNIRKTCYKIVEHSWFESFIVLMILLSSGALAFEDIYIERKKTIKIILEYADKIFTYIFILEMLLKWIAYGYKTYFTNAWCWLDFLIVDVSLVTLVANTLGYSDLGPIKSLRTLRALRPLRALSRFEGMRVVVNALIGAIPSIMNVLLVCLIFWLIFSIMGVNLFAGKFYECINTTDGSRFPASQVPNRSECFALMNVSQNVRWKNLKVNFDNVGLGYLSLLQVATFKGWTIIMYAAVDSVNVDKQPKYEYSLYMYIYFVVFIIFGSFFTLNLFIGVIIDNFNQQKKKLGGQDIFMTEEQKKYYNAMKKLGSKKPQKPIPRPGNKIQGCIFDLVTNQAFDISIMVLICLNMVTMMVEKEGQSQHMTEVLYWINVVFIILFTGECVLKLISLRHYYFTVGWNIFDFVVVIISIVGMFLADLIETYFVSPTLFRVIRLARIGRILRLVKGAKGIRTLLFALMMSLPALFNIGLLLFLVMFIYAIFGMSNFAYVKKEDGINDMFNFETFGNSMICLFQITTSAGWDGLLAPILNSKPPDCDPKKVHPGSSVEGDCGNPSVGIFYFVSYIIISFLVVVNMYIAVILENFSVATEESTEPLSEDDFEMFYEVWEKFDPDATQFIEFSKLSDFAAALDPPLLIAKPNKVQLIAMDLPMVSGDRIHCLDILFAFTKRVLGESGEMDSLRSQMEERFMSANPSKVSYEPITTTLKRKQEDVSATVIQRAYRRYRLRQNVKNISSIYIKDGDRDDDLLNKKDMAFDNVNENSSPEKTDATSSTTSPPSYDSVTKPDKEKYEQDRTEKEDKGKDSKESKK
T1 sequence (Q07699 19-218, further chain): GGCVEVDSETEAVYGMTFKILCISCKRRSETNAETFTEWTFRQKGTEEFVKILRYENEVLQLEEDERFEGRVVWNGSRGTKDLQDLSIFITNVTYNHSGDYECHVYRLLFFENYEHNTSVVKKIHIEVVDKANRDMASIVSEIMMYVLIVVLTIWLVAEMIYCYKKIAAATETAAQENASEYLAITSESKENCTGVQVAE

With `CC[C@H](C)[C@H](NC(=O)[C@H](CCC(=O)O)NC(=O)[C@H](Cc1ccc(O)cc1)NC(=O)[C@H](CCCCN)NC(=O)[C@@H]1CSSC[C@@H]2NC(=O)[C@H](CCC(N)=O)NC(=O)[C@H](CC(=O)O)NC(=O)[C@H](CC(N)=O)NC(=O)[C@H](CO)NC(=O)[C@@H]3CCCN3C(=O)[C@H](CC(N)=O)NC(=O)[C@@H]3CSSC[C@H](NC(=O)[C@H](C(C)C)NC(=O)[C@H](CC(C)C)NC(=O)[C@H](CC(N)=O)NC(=O)[C@H](CO)NC(=O)[C@H](CO)NC(=O)[C@H](CCCCN)NC(=O)[C@H](CSSC[C@H](NC(=O)[C@@H](N)CCC(=O)O)C(=O)N[C@@H](CC(C)C)C(=O)NCC(=O)N[C@@H](Cc4ccccc4)C(=O)NCC(=O)N[C@@H](CCCCN)C(=O)NCC(=O)N3)NC2=O)C(=O)N[C@@H](CO)C(=O)N[C@@H](CCCNC(=N)N)C(=O)N[C@@H](CCCCN)C(=O)N[C@@H](Cc2c[nH]cn2)C(=O)N[C@@H](CCCNC(=N)N)C(=O)N[C@@H](Cc2c[nH]c3ccccc23)C(=O)N1)C(N)=O` [HNTX-IV], the IC50 (in general, the point on the concentration scale where inhibition reaches its midpoint) is 243 ± 42.5 nM at hNav1.7 (setting [1]); 11 ± 2 nM against rKv4.2 N282A; 51 ± 10 nM on rKv4.2 (mean ± SEM, read-out: IC50 on rKv4.2 WT); 189 ± 14.7 nM against rKv4.3; 182 ± 50 nM against rKv4.2 V278A.
Regarding `CC(C)C[C@@H]1NC(=O)[C@H](Cc2c[nH]c3ccccc23)NC(=O)[C@H](Cc2ccc(O)cc2)NC(=O)[C@H](CCCNC(=N)N)NC(=O)[C@@H](NC(=O)[C@@H](N)CCC(=O)O)CSSC[C@@H]2NC(=O)[C@@H]3CSSC[C@@H](C(=O)N[C@H](C(=O)N[C@@H](Cc4c[nH]c5ccccc45)C(=O)N[C@@H](CC(=O)O)C(=O)N[C@@H](Cc4c[nH]c5ccccc45)C(=O)N[C@H](C(=O)N[C@@H](Cc4ccccc4)C(N)=O)[C@@H](C)O)C(C)C)NC(=O)[C@H](Cc4c[nH]c5ccccc45)NC(=O)CNC(=O)[C@H](Cc4c[nH]cn4)NC(=O)[C@H](CCCCN)NC(=O)[C@@H]4CCCN4C(=O)[C@H](CO)NC(=O)[C@H](CSSC[C@H](NC(=O)[C@H]([C@@H](C)O)NC(=O)CNC1=O)C(=O)N[C@@H](CO)C(=O)N[C@@H](CCCCN)C(=O)N[C@@H]([C@@H](C)O)C(=O)NCC(=O)N[C@@H](CC(=O)O)C(=O)N3)NC(=O)[C@H](CO)NC(=O)[C@H](CC(C)C)NC(=O)[C@H](Cc1c[nH]cn1)NC(=O)[C@H](CO)NC2=O` [HNTX-VIIa] (H-ECRYWLGTCSKTGDCCSHLSCSPKHGWCVWDWTF-NH2; disulfide 2-16, 9-21, 15-28), the IC50 on hNav1.7 (native toxin isolated from venom, n = 5, read-out: IC50 against hNav1.7, native HNTX-VIIa) was determined as 50.6 ± 4.6 nM; on hNav1.7 (setting [1]), 80.4 ± 19.6 nM; on rKv4.2 N282A it was 21 ± 1 nM; on rKv4.2 (held at -80 mV, step to 0 mV, mean ± S.E.M., read-out: IC50 for rKv4.2) it was 18 ± 3.2 nM; at rKv4.3, 130 ± 14.5 nM; against rKv4.2 V278A, 53 ± 6 nM.
